Converted amounts (≈) assume the structure as drawn.
Legend:
[1] = (§1) Inhibition of replicating Mycobacterium tuberculosis H37Rv NDH assessed as cell growth inhibition after 7 days by MABA method; conditions: 168 h
[2] = tested on: Mycobacterium tuberculosis; test: Growth inhibition of replicating Mycobacterium tuberculosis H37Rv at 5 uM after 7 days by MABA method relative to control; assay type: functional; conditions: 168 h, read-out: GI
[3] = Inhibition of Mycobacterium tuberculosis NDH by HTS-based assay
[4] = Drug level in Sprague-Dawley rat bile treated with 2-(4-(3,3-Difluoropyrrolidin-1-yl)phenyl)-5,7-difluoro-3-methylquinolin-4-yl acetate at 50 mg/kg, po via gavage up to 9 hrs by HPLC analysis; assay type: ADME, organism-based; conditions: in vivo
[5] = Retention time of compound by HPLC anlaysis
[6] = Drug level in Sprague-Dawley rat urine treated with 2-(4-(3,3-Difluoropyrrolidin-1-yl)phenyl)-5,7-difluoro-3-methylquinolin-4-yl acetate at 50 mg/kg, po via gavage up to 9 hrs by HPLC analysis; assay type: ADME, organism-based; conditions: in vivo
HepG2 = test: Cytotoxicity against human HepG2 cells after 24 hrs in presence of glucose by MTT assay; assay type: cell-based; conditions: hepg2, 24 h
[7] = Solubility of compound at pH 1; assay type: physicochemical; conditions: buffer
[8] = Apparent permeability across apical to basolateral side in human Caco2 cells at 5 uM measured up to 180 mins by LC-MS/MS analysis; assay type: ADME, cell-based; conditions: Caco-2
[9] = tested on: Mycobacterium tuberculosis H37Rv; test: as §1
[10] = Solubility of compound in Middlebrook 7H9 broth media containing 10% albumin-dextrose-catalase solution; assay type: physicochemical
[11] = Metabolic stability in mouse liver microsomes assessed as half life for metabolic turnover at 0.1 to 10 uM preincubated for 60 mins in presence of NADPH measured up to 60 mins by mass spectroscopic analysis; assay type: ADME, microsome
[12] = Protein binding in human plasma at 1 uM after 18 hrs by equilibrium dialysis; assay type: ADME, cell-free; conditions: read-out: PPB (converted)
[13] = Half life in human plasma at 1 uM measured up to 3 hrs by LC-MS/MS analysis; assay type: ADME, cell-free
[14] = Solubility of compound at pH 7.4; assay type: physicochemical; conditions: buffer
[15] = Half life in rat plasma at 1 uM measured up to 3 hrs by LC-MS/MS analysis; assay type: ADME, cell-free
[16] = Metabolic stability in human liver microsomes assessed as half life for metabolic turnover at 0.1 to 10 uM preincubated for 60 mins in presence of NADPH measured up to 60 mins by mass spectroscopic analysis; assay type: ADME, microsome
[17] = Metabolic stability in rat liver microsomes assessed as half life for metabolic turnover at 0.1 to 10 uM preincubated for 60 mins in presence of NADPH measured up to 60 mins by mass spectroscopic analysis; assay type: ADME, microsome
[18] = Intrinsic clearance in human microsomes; assay type: ADME, Microsome; conditions: read-out: CLH
[19] = Intrinsic clearance in rat hepatocytes assessed per million cells; assay type: ADME, cell-based, Hepatocyte; conditions: read-out: CLH
[20] = Aqueous solubility of compound; assay type: physicochemical; conditions: buffer
[21] = Lipophilicity, logD of compound at pH 7.4; conditions: buffer
CYP2C9 = CYP2C9 (Homo sapiens, UniProt P11712); test: Inhibition of human microsomal CYP2C9 expressed in insect cells at 10 uM using OOMR as substrate measured every minute for 1 hr by fluorescence-based assay; assay type: ADME; conditions: probe OOMR
Sequence of CYP2C9 (P11712 whole entry): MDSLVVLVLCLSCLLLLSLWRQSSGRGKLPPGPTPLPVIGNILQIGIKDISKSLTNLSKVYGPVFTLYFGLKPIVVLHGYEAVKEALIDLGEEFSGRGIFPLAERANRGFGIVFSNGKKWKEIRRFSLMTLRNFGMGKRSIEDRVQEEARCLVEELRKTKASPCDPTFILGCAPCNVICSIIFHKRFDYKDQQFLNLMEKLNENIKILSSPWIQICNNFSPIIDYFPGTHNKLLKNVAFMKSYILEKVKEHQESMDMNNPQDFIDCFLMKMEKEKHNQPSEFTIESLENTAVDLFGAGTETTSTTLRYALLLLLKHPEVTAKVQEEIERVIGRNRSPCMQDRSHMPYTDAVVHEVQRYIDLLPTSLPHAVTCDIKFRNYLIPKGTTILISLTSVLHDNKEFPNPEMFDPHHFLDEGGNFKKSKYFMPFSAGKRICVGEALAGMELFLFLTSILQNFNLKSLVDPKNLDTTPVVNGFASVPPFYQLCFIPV

Salmonella typhimurium = test: Mutagenicity in Salmonella typhimurium by Ames test; assay type: toxicity; conditions: salmonella enterica subsp. enterica serovar typhimurium
CYP2C8 = molecular target: T1, CYP2C8 (Homo sapiens, UniProt P10632); test: Inhibition of human microsomal CYP2C8 expressed in insect cells at 10 uM using DBOMF as substrate measured every minute for 1 hr by fluorescence-based assay; assay type: ADME; conditions: probe DBOMF
T1 sequence (P10632 whole entry): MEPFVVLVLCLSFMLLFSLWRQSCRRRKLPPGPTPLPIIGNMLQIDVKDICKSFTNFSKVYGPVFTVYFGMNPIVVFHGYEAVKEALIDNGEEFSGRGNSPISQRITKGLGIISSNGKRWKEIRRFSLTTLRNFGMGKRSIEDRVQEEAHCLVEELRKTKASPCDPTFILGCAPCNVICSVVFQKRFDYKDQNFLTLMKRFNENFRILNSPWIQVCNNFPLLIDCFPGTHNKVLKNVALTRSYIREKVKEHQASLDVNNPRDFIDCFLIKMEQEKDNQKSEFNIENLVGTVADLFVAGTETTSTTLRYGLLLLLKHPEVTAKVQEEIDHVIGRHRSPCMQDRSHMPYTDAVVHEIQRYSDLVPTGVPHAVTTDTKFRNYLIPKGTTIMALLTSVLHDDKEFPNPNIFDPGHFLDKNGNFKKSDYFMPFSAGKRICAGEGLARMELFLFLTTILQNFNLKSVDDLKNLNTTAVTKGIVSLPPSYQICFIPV

[22] = Intrinsic clearance in mouse microsomes; assay type: ADME, Microsome; conditions: read-out: CLH
CYP3A4 = CYP3A4 (Homo sapiens, UniProt P08684); test: Inhibition of human microsomal CYP3A4 expressed in insect cells at 10 uM using BOMCC as substrate measured every minute for 1 hr by fluorescence-based assay; assay type: ADME; conditions: probe BOMCC
Sequence of CYP3A4 (P08684 whole entry): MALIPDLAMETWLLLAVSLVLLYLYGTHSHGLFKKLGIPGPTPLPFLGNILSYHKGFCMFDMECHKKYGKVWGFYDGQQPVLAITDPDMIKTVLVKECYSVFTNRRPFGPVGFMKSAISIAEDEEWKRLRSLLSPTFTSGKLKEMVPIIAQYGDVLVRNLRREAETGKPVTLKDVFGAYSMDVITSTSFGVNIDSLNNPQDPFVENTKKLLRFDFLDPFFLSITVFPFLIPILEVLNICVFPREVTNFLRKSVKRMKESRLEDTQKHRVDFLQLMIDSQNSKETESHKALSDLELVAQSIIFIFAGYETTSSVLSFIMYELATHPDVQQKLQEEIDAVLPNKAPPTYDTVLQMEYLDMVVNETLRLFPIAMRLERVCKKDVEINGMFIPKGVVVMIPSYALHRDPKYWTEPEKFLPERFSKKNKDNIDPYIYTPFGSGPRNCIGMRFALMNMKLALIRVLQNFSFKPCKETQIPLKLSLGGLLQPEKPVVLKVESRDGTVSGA

[23] = Apparent permeability across basolateral to apical side in human Caco2 cells at 5 uM measured up to 180 mins by LC-MS/MS analysis; assay type: ADME, cell-based; conditions: Caco-2
[24] = tested on: Mycobacterium tuberculosis; test: Growth inhibition of dormant Mycobacterium tuberculosis H37Rv incubated for 7 days under anaerobic condition followed incubation under aerobic condition for 7 days by MABA; assay type: functional; conditions: 168 h
[25] = molecular target: Voltage-gated inwardly rectifying potassium channel KCNH2 (Homo sapiens, UniProt Q12809); test: Inhibition of human ERG
Sequence of Voltage-gated inwardly rectifying potassium channel KCNH2 (Q12809 whole entry): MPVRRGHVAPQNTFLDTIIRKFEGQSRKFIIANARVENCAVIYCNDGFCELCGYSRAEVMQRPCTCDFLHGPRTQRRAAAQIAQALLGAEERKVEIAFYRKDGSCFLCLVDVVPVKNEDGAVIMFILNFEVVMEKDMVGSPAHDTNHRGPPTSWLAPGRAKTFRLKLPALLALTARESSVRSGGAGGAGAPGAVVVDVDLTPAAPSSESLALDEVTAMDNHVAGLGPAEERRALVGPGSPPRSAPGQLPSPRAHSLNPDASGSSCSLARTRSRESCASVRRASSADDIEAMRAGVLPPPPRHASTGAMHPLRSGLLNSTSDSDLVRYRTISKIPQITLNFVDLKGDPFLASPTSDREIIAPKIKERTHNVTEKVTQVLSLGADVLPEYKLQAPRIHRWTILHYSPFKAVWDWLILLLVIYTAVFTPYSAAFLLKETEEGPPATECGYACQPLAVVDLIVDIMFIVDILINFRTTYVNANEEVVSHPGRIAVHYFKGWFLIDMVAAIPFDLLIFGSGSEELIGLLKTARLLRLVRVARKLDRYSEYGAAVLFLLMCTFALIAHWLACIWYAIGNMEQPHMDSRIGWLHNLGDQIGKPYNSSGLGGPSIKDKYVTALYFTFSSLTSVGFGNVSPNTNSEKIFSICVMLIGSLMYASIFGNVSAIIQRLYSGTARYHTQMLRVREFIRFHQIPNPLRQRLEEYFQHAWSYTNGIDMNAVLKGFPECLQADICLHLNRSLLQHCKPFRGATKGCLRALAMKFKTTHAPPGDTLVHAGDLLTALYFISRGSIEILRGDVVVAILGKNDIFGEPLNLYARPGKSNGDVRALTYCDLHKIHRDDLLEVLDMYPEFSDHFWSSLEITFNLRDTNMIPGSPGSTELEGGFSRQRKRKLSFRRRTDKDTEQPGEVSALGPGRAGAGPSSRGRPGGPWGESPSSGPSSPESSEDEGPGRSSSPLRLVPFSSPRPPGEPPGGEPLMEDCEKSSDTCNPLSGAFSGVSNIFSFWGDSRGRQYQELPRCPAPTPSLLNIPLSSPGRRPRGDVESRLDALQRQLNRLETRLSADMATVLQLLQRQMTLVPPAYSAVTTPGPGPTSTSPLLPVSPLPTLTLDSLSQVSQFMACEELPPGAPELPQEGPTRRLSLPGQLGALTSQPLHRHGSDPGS

CYP2D6 = CYP2D6 (Homo sapiens, UniProt P10635); test: Inhibition of human microsomal CYP2D6 expressed in insect cells at 10 uM using MOBFC as substrate measured every minute for 1 hr by fluorescence-based assay; assay type: ADME; conditions: probe MOBFC
Sequence of CYP2D6 (P10635 whole entry): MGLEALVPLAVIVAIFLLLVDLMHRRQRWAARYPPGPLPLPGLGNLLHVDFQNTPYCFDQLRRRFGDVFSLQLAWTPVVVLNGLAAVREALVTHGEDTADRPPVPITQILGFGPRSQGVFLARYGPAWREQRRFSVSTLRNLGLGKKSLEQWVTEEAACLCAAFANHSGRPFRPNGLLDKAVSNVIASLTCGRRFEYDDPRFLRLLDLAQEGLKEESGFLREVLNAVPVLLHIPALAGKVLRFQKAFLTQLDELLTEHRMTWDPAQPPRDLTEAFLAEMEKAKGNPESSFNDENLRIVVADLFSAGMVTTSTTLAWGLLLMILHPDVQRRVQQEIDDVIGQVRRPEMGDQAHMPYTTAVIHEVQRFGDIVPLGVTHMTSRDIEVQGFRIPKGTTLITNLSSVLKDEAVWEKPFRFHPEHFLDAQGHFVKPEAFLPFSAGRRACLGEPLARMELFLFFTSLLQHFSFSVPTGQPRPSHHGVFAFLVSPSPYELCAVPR

[26] = Intrinsic clearance in rat microsomes; assay type: ADME, Microsome; conditions: read-out: CLH
CYP3A5 = CYP3A5 (Homo sapiens, UniProt P20815); test: Inhibition of human microsomal CYP3A5 expressed in insect cells at 10 uM using BOMCC as substrate measured every minute for 1 hr by fluorescence-based assay; assay type: ADME; conditions: probe BOMCC
Sequence of CYP3A5 (P20815 whole entry): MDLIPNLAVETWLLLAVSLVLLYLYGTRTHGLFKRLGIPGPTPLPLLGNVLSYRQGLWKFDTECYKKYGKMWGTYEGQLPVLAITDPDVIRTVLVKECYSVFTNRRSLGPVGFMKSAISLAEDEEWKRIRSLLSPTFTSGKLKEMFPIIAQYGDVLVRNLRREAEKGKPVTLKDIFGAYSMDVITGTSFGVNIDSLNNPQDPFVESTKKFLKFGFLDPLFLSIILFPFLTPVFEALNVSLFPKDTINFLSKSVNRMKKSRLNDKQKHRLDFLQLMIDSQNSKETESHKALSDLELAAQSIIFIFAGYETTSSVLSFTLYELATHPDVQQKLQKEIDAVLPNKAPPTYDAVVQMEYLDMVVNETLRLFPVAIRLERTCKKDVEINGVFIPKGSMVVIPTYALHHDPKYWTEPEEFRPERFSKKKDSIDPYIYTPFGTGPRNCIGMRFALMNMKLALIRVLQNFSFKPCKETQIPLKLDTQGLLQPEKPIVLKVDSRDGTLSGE

With COc1ccc2c(=O)c(C)c(-c3ccc(N4CCCCC4)cc3)[nH]c2c1 the IC50 [1] was 730 nM, the inhibition of growth at 5 µM [2] was greater than 50% and the IC50 [3] was 730 nM.

In the case of OCc1c(-c2ccc(N3CC(O)C(F)(F)C3)cc2)nc2cc(F)cc(F)c2c1O (stereo not given), the Drug metabolism [4] is reported as “Metabolite_Detected”, the Retention time [5] is reported as 8.6 min and the Drug metabolism [6] is reported as “Metabolite_Detected”.

Compound Cc1c(-c2ccc(N3CCCC(F)C3)cc2)[nH]c2cc(F)cc(F)c2c1=O (stereo not given) has an Activity (HepG2) of 188.1 µM, a solubility [7] greater than 150 µg/mL and a Papp A→B at 3 h, 5 µM [8] of 22.9 ×10⁻⁶ cm/s. It also gave an IC90 [9] of 560 nM, an IC50 [1] of 300 to 310 nM and a solubility [10] of 10 µg/mL (≈ 26.9 µM). The half-life at up to 10 µM [11] was 0.113 h, the fraction unbound at 18 h, 1 µM [12] was 0.0155 and the half-life at 1 µM [13] was greater than 3 h. The solubility [14] was less than 1 µg/mL, the half-life at 1 µM [15] was greater than 3 h and the half-life at up to 10 µM [16] was 0.13 h. It also gave a half-life at up to 10 µM [17] of 0.168 h.

Work on Cc1c(-c2ccc(-n3cccc3)cc2)[nH]c2cc(F)cc(F)c2c1=O yielded an Activity (HepG2) of 141 µM, a solubility [7] of 5.1 µg/mL (≈ 15.2 µM) and a Papp A→B at 3 h, 5 µM [8] of 31 ×10⁻⁶ cm/s. The IC90 [9] was 690 nM, the IC50 [1] was 432 to 440 nM and the solubility [10] was 61 µg/mL (≈ 181 µM). The half-life at up to 10 µM [11] was 0.345 h, the fraction unbound at 18 h, 1 µM [12] was 0.039 and the half-life at 1 µM [13] was greater than 3 h. It also gave a solubility [14] of 3.6 µg/mL (≈ 10.7 µM), a half-life at 1 µM [15] greater than 3 h and a half-life at up to 10 µM [16] of 0.17 h. For the same compound, the half-life at up to 10 µM [17] was 0.502 h.

Work on Cc1c(-c2ccc(N3CC[C@H](F)C3)cc2)[nH]c2cc(F)cc(F)c2c1=O yielded a solubility [7] of less than 1 µg/mL, a Papp A→B at 3 h, 5 µM [8] of 15.5 ×10⁻⁶ cm/s and an IC50 [1] of 1800 nM. It also gave a microsomal CLint [18] of 197 µL/min/mg, a solubility [10] of 2.5 µg/mL (≈ 6.98 µM) and a fraction unbound at 18 h, 1 µM [12] of 0.0103 to 0.014. The half-life at 1 µM [13] was greater than 3 h, the solubility [14] was less than 1 µg/mL and the half-life at 1 µM [15] was greater than 3 h. For the same compound, the hepatocyte CLint [19] was 150 µL/min/1e6 cells, the solubility [20] was 1 µM (≈ 0.358 µg/mL) and the logD [21] was 3.6.

With Cc1c(-c2ccc(N3CCC(F)(F)C3)cc2)[nH]c2cc(F)cc(F)c2c1=O the inhibition at 1 h, 10 µM (CYP2C9) was 0%, the Activity (Salmonella typhimurium) was “Non-Toxic” and the Activity (HepG2) was greater than 100 µM. For the same compound, the solubility [7] was less than 1 µg/mL, the Papp A→B at 3 h, 5 µM [8] was 10 ×10⁻⁶ cm/s and the inhibition at 1 h, 10 µM (CYP2C8) was 38%. For the same compound, the microsomal CLint [22] was 6.03 µL/min/mg, the inhibition at 1 h, 10 µM (CYP3A4) was 0% and the IC90 [9] was 1100 nM. The IC50 [1] was 525 to 530 nM, the microsomal CLint [18] was 9.52 to 89.7 µL/min/mg and the Drug metabolism [4] was “Metabolite_Detected”. It also gave a Papp B→A at 3 h, 5 µM [23] of 9.8 ×10⁻⁶ cm/s, a solubility [10] of 55 µg/mL (≈ 146 µM) and a half-life at up to 10 µM [11] of 1.92 h. It also gave a fraction unbound at 18 h, 1 µM [12] of 0.003 to 0.027, a half-life at 1 µM [13] greater than 3 h and a solubility [14] of less than 1 µg/mL. It also gave an IC90 [24] of 76 nM, a half-life at 1 µM [15] greater than 3 h and an IC50 [25] greater than 25000 nM. For the same compound, the inhibition at 1 h, 10 µM (CYP2D6) was 0%, the half-life at up to 10 µM [16] was 1.21 h and the microsomal CLint [26] was 11.2 µL/min/mg. The hepatocyte CLint [19] was 52.2 µL/min/1e6 cells, the half-life at up to 10 µM [17] was 1.03 h and the solubility [20] was 0.2 µM (≈ 0.0753 µg/mL). The inhibition at 1 h, 10 µM (CYP3A5) was 0%, the Retention time [5] was 11.4 min and the Drug metabolism [6] was “Metabolite_Detected”.

Compound Cc1c(-c2ccc(N3CCCCC3)cc2)[nH]c2ccccc2c1=O has an IC50 [1] of 1500 nM, an inhibition of growth at 5 µM [2] greater than 50% and an IC50 [3] of 1500 nM.

With Cc1c(-c2ccc(N3CC(O)C(F)(F)C3)cc2)nc2cc(F)cc(F)c2c1O (stereo not given) the Drug metabolism [4] was “Metabolite_Detected”, the Retention time [5] was 10.1 min and the Drug metabolism [6] was “Metabolite_Detected”.
